Data published in patent US9657047B2, “Crystallization of epirubicin hydrochloride” (MEDAC GESELLSCHAFT FÜR KLINISCHE SPEZIALPRÄPARATE MBH, priority 2011, dated 2017).

Assay: test of thermal stability (storage at 40° C.)
Format: physicochemical
Settings: two weeks and three weeks; for decomposition on storage (thermal stability): crystals stored at 40° C. for one week
Procedure: The produced crystalline epirubicin hydrochloride was subjected to a test of thermal stability. For this purpose, the produced crystals were stored at a temperature of 40° C. for a time period of one week, two weeks, and three weeks. […] Instead, the crystals remained in unchanged form.
The epirubicin hydrochloride produced was subjected to a test of thermal stability. For this purpose, the epirubicin hydrochloride was stored at a temperature of 40° C. for a time period of one week, two weeks, and three weeks. Within this time frame, a thermal decomposition of epirubicin hydrochloride amplified with increasing storage period by two percent respectively was observed.

| Compound | thermal decomposition amplified with increasing storage period (stored at 40° C. for one week, increase per storage period) | decomposition on storage (thermal stability) |
| --- | --- | --- |
| COc1cccc2c1C(=O)c1c(O)c3c(c(O)c1C2=O)C[C@@](O)(C(=O)CO)C[C@@H]3O[C@H]1C[C@H](N)[C@@H](O)[C@H](C)O1.Cl [Comparison Example 1, epirubicin hydrochloride] | two | – |
| COc1cccc2c1C(=O)c1c(O)c3c(c(O)c1C2=O)C[C@@](O)(C(=O)CO)C[C@@H]3O[C@H]1C[C@H](N)[C@@H](O)[C@H](C)O1.Cl [Example 2, epirubicin hydrochloride] | – | no decomposition |
| COc1cccc2c1C(=O)c1c(O)c3c(c(O)c1C2=O)C[C@@](O)(C(=O)CO)C[C@@H]3O[C@H]1C[C@H](N)[C@@H](O)[C@H](C)O1.Cl [Example 1, epirubicin hydrochloride] | – | no decomposition |
